The numbers were not newly measured in paper PMC7765930, “Antiproliferative Phenanthrenes from Juncus tenuis: Isolation and Diversity-Oriented Semisynthetic Modification” (Molecules, 2020), which cites them from elsewhere.

Broadly, the IC50 is the concentration needed to halve the response being measured.

The subject of one data set is HL-60 cell line. Details: method as in PMID 22976333. The conditions noted are these: read-out: IC50, cytotoxicity against HL-60; cited from earlier work.
Another data set relates to PC-3 cells. Details: method as in PMID 19193043. The conditions noted are these: read-out: IC50, growth inhibition PC-3; cited from earlier work.
The next data set relates to A549 cells. Details: method as in PMID 19193043. The conditions noted are these: read-out: IC50, growth inhibition A549; cited from earlier work.
The next data set relates to HCT-8 cells. Details: method as in PMID 19193043. The conditions noted are these: read-out: IC50, growth inhibition HCT-8; cited from earlier work.
A further data set has as its system KB cells. The arrangement: method as in PMID 19193043. The conditions noted are these: read-out: IC50, growth inhibition KB; cited from earlier work.
The subject of data set [1] is vincristine resistant KBVIN cells. The arrangement: method as in PMID 19193043. The conditions noted are these: read-out: IC50, growth inhibition KBVIN; cited from earlier work.
A further data set deals with DU145 cells. The arrangement: method as in PMID 19193043. The conditions noted are these: read-out: IC50, growth inhibition DU145; cited from earlier work.
For a further data set, the system named is MCF-7 cells. The arrangement: method as in PMID 19193043. The conditions noted are these: read-out: IC50, growth inhibition MCF-7; cited from earlier work.

In the case of `COC1=C(OC)C(=O)c2c(ccc3cccc(O)c23)C1=O` [5-hydroxy-2,3-dimethoxy-1,4-phenanthrenequinone], the IC50 in the data set on HL-60 cell line is 4.7 µM.
In the case of `COC1=CC(=O)c2ccc3cc(OC)c(OC)c(O)c3c2C1=O` [calanquinone A], the concentration for half-maximal inhibition (IC50) is 510 nM in the data set with PC-3 cells; 610 nM in the data set with A549 cells; 640 nM with HCT-8 cells; 1020 nM with KB cells; 1430 nM in data set [1]; 1080 nM in the data set with DU145 cells. The IC50 in the data set with MCF-7 cells is 100 nM.
